Measured values from patent US20250381269A1, “BISPECIFIC ANTIBODY BINDING EGFR AND B7-H3” (FORTVITA BIOLOGICS (SINGAPORE) PTE. LTD., priority 2022, published 2025).

Key:
[1] = test system: H358; type: cell-based, human; settings: EGFR WT, KRAS G12C, huPBMC:target 50:1, 8 h, LDH
Protocol: • (1) A CTS medium (Gibco, A3021002) was preheated at 37° C. huPBMC (Miaotong Biotechnology, PB 100C-W) was quickly thawed in a water bath, and then the cells were added slowly to 8 mL of CTS medium (containing 1% DNase). • (2) The mixture was centrifuged at 300 g for 8 min. The supernatant was removed, and the cells were resuspended in 30 mL of CTS (containing 10 μL of DNase), transferred to a T75 flask, and incubated in an incubator at 37° C. overnight. • (3) The suspension cells cultured overnight were taken and centrifuged at 300 g for 8 min. The supernatant was removed, and the cell density was adjusted with CTS. According to an effector/target ratio of effector cells (huPBMCs) to target cells (tumor cells in Table 5) of 50:1, huPBMCs and the tumor cells prepared in advance (Target: huPBMC=1.5E4/7.5E5 cells/well/100 μL) were plated in a 96-well low-adsorption plate (Corning. CLS7007-24EA). • (4) The diluted antibody drug was added to the corresponding cell well plate and cultured at 37° C. with 5% CO2 for 8 h. • (5) The mixture was centrifuged at 300 g for 5 min. 50 μL of the supernatant was transferred to a 96-well transparent flat-bottom plate ((NUNC, 136101), 50 μL of the LDH reagent (Promega, G1780) prepared in advance was added to the corresponding well plate, and the plate was left to stand at room temperature for 15-30 min in the dark. • (6) 50 μL LDH stop solution (Promega, G1780) was taken and detected by a multimode microplate reader (Molecular Devices, Spectra MAXi3) at 490 nm for readings.

[2] = test system: H292; test: Proliferation inhibition experiment, H292 (NSCLC); type: cell-based; settings: EGFR WT, KRAS WT
Protocol: • (1) NSCLC: plated at 1500-2500 cells/100 μL in a 96-well low-adsorption plate (Corning, CLS7007-24EA) for 3D cell culture, in which the following cell lines and specific amounts were used: • NSCLC: 2000 cells/100 μL/well • NCI-H292: Cell Bank of the Chinese Academy of Sciences, SCSP-582 • NCI-H322: Cobioer, CBP60134 • NCI-H1650: ATCC, CRL-5883 • NCI-H1975: ATCC, CRL-5908 • SK-MES-1: CoBioer, CBP60152 • NCI-H1703: ATCC, HTB-43 • PC9+hB7H3: constructed as described above • CRC and HNSCC: plated at 1500-2000 cells/100 μL in a 96-well white-bottom plate (NUNC, 136101) for 2D cell culture, in which the following cell lines and specific amounts were used: • CRC: 1500 cells/100 μL/well • CCK-81: CoBioer, CBP60581 • HT-55: CoBioer, CBP60012 • H508: CoBioer, CBP60795 • LS180: CoBioer, CBP60034 • HNSCC: 1500 cells/100 μL/well • TE-1: CoBioer, CBP60655 • Colo680: CoBioer, CBP60452. (2) The antibody molecules prepared in advance by dilution were added to the corresponding cell well plate, mixed well, and cultured in an incubator at 37° C. with 5% CO2 for 5 days. • (3) After 5 days of continuous culture for proliferation inhibition assay, the Cell-Titer reagent (Promega, G7572) prepared in advance was added to cell wells, the plate was left to stand at room temperature for 15-25 min in the dark, and then CRC and HNSCC cells were directly detected by a multimode microplate reader (Molecular Devices, Spectra MAXi3). • (4) NSCLC: Cell-Titer and the cell mixture were transferred to a 96-well white-bottom plate (NUNC, 136101) and detected by a multimode microplate reader (Molecular Devices, Spectra MAXi3).

[3] = test system: NCI-H292 tumor-bearing mice; test: Anti-tumor efficacy in NCI-H292 tumor-bearing mice; type: in vivo; settings: NCI-H292, Balb/c Nude mice, 5 mg/kg i.p. Q3-4D x4; for Tumor volume (mm^3): day not printed in column (TGI based on day 22); for Complete response rate @ Day 59: tumor volume of 0, 5 mice per group; for Tumor growth inhibition (%) @ Day 22: vs h-IgG 5 mg/kg
Excerpt: SPF female Balb/c Nude mice (purchased from Beijing Vital River Laboratory Animal Technology Co., Ltd.) with certificate No. 110011211108430747 were used in the experiment.
NCI-H292 cells were routinely subcultured for the subsequent in-vivo experiment. The cells were collected by centrifugation. Then the NCI-H292 cells were resuspended in an equal-proportion mixture of PBS (1×) and Matrigel Matrix (Corning) to prepare a cell suspension with a cell concentration of 20×10^6 cells/mL. On day 0. 0.2 mL of the cell suspension was taken and subcutaneously inoculated to the right abdominal area of Balb/c Nude mice to establish NCI-H292 tumor-bearing mouse models.
Four days after the tumor cell inoculation, the tumor volume in each mouse was measured. The mice were grouped (with 5 mice in each group).
h-IgG. […] Administration was performed on days 4, 8, 12, and 15 after the inoculation of NCI-H292 cells. Mice were monitored for tumor volume and body weight twice a week. […] Since death of mice due to tumors occurred earlier in some groups, relative tumor growth inhibition (TG1%) was calculated based on the tumor volume on day 22 after the inoculation by the following formula:
TG1%=100%×(control group tumor volume−treatment group tumor volume)/(control group tumor volume−control group tumor volume before administration).
Tumor volume measurement: The maximum length of major axis (L) and maximum length of minor axis (W) of tumors were measured with a vernier caliper, and tumor volume was calculated by the following formula: V=L×W^2/2.
The mice were weighed using an electronic balance. Mice with tumor volumes above 2000 mm3 or weight loss above 20% were euthanized.

[4] = test system: H1975; test: ADCC report assay, H1975; type: cell-based; settings: EGFR L858R T790M, KRAS WT, effector/target 10:1, 20 h
Protocol: In the ADCC report assay, ADCC effector cells ((Promega, G7102)) are engineered cells in which FcRIIIa (V158) receptor is overexpressed into Jurkat T cells, which rapidly respond to ADCC through the NFAT-RE driving element within the Jurkat T cells.
• (1) Tumor cells (cell lines listed in Table 3) and ADCC effector cells (Promega, G7102) were mixed well (1.5E4 cells: 1.5E5 cells/well/100 μL (1.5E5: 1.5E6 cells/mL)) according to an effector/target ratio (10:1), and added to a 96-well white plate (NUNC, 136101). • (2) The antibody molecules prepared in advance by dilution were added to the corresponding cell well plates, mixed well, and cultured at 37° C. with 5% CO2 for 20 h. • (3) The Bio-glo reagent (Promega, G755B) prepared in advance was added to the cell well plate, the plate was left to stand at room temperature for 10-15 min in the dark, and then the cells were detected by a multimode microplate reader (Molecular Devices, Spectra MAXi3).

Substance	EC50 [1] [pM]	Max inhibition (%) Mean ± SD [2] [%]	IC50 ([2]; 3D culture, 5 days) [pM]	Tumor volume (mm^3) [3] [mm^3]	Complete response rate @ Day 59 [3]	Tumor growth inhibition (%) @ Day 22 [3] [%]	EC50 [4] [pM]
amivantamab [JNJ372]	30	64.5 ± 2.5	141000	177	0/5	100	63
zalutumumab [Zalu mAb]	7	79.4 ± 1.6	–	96	1/5	107	29
